Values of other authors, collected in US20120129153A1, “Diagnostic method for the prediction of the development and control of the effectiveness of the treatment of oncological illnesses” (priority 2010, published 2012).

What was measured:
[1] = test system: EBV-associated nasopharyngeal carcinomas; details: EBV-associated nasopharyngeal carcinomas in athymous mice
[2] = test system: neuroblastomal cells infected by HCMV; details: HCMV-infected neuroblastomal cells resistant to cysplatin and etoposide; virus reproduction blocked with Ganciclovir

| SMILES | induction of apoptosis in EBV-transformed epithelial cells [1] | sensitivity of the cells to the action of anti-tumor drugs [2] |
| --- | --- | --- |
| Nc1ccn(C[C@@H](CO)OCP(=O)(O)O)c(=O)n1 [Cidofovir, (S)-1-(3-hydroxy-2-phpsphonyl-methoxypropyl)cytosine] | causes a quick induction of apoptosis | – |
| Nc1nc(O)c2ncn(COC(CO)CO)c2n1 [Ganciclovir] | – | fully restored |
